Experimental data reported in patent publication US20050048093A1, “Methods and reagents for the control of infestations of parasites” (priority 2001, published 2005).
Values joined by “and” are separate entries in the source; they are usually repeats but may differ in a detail not shown here. Identical values can stand only once.

Columns and labels:
Assay type in all cases: in vivo
[1] = system: Varroa destructor; experiment: Inhibition of the reproduction of V. destructor in artificial (gelatine) cells; conditions: for Inhibitory activity in respect of varroa reproduction / Number of offspring per varroa female in the artificial cells treated (Mean) / Number of offspring per varroa female in the artificial cells treated: Example 5; for Inhibitory activity in respect of varroa reproduction: artificial cells, result in words; for Number of offspring per varroa female in the artificial cells treated (Mean) / Number of offspring per varroa female in the artificial cells treated: same procedure as Example 1; for Number of offspring per varroa female in the artificial cells treated (Mean): mean of three replications; for Number of offspring per varroa female in the artificial cells treated: single replications 1-3
Method: In Example 1, a chemical composition is made up of a solution of heptadecene in hexane, with a double bond in position 8 and cis configuration ([…]). The cis-8-heptadecene in a solution of hexane causes a reduction in reproduction, ie a reduction in the number of offspring produced by the Varroa destructor mite, raised in a laboratory environment, on bee larvae in gelatine cells. For verification of the activity of cis-8-C17H34, two groups of gelatine cells were prepared, with a diameter of 6.5 mm. In each of the two cells of the first group, 10 […] 100 ng of cis-8-heptadecene was deposited. This group was defined as the treated group. In the cells of the second group, 10 […] active compound was deposited. This group was defined as the control group. The substances were deposited into each cell using a micropipette. The solvent was left to evaporate and then one varroa and one bee larva from natural, just-capped cells were introduced into each cell in each of the groups. The varroa was thus cultivated on the bee larva, during the metamorphosis of the larva, as happens in nature. Cultivation took place at 35° C. and 75% relative humidity. After ten days Oust before the bee reached its adult state), the cells were opened and inspected by microscope and the offspring produced by each varroa female were counted. The experiment described above was conducted four times; in total, approximately 80 cells were used per group. Following the same procedure used in Example 1, a chemical composition made up of a solution of a heptadecene isomer as in Example 1, in this case the isomer with a double bond in position 6 (cis-6-C17H34), and a second composition containing a solution of cis-8-heptadecene (cis-8-C17H34) were applied.

[2] = system: Varroa destructor; experiment: Inhibition of the reproduction of V. destructor in natural cells; conditions: Example 2, 10 days in hive
Method: Example 2 was conducted in the same way as Example 1, except for the fact that the V. destructor mite was cultivated on bee larvae in natural cells from a beehive. In this example, too, the effect of 8-heptadecene on the reduction in the mean number of offspring produced by a female V. destructor in cells of natural honeycomb, kept in the hive, was verified.
For verification of the activity of cis-8-C17H34, two groups of natural cells were prepared. In the cells of the first group, referred to as the treated group, 1 μl of acetone containing 100 ng of cis-8-heptadecene was deposited. In the cells of the second group, the control group, 1 μl of the solvent alone, ie acetone, was deposited. The natural cells were cells just capped with honeycomb taken from infested hives and the product was deposited via injection of the solution using a microsyringe through the cell cap. Following treatment, the honeycomb was returned to the hive from which it was taken. After ten days, the honeycombs used for the experiment were brought to the laboratory; both the treated and control cells were opened and inspected. In the infested cells, the mean number of offspring produced by each varroa was counted. The experiment was replicated six times: in total, approximately 140 infested cells were examined for each group.

[3] = system: Varroa destructor; experiment: Inhibition of the reproduction of V. destructor via dispensing of cis-8-heptadecene in bee colonies; conditions: for Number of offspring of V. destructor inside the capped cells of Group B (10 μg) / Number of offspring of V. destructor inside the capped cells of Group A (100 μg): changed weekly
Method: In Example 3, ten nuclei were prepared, ie bee colonies with a reduced number of individuals, in the order of several thousand. Each nucleus was placed in a hive with dimensions smaller than those of a standard hive. These nuclei were divided into three groups—A and B, each with three nuclei, and C, with four nuclei.
Into each hive, a dispensing mechanism comprising a nylon grid, with a 100 μm mesh, square and with a side measurement of 10 cm, supported by a sheet of aluminium, was introduced. Solutions of cis-8-heptadecene in various concentrations in 100 μl of hexane were placed on each of these grids. The solvent was left to evaporate before each test. Group A was treated with 100 μg of cis-8-C17H34 in 100 μl of hexane, Group B with 10 μg of cis-8-C17H34 in […], and Group C with 100 μl of hexane without the addition of cis-8-C17H34 (control grou). The dispensing mchanism was changed in each hive each week; and treatment lasted for three weeks. At the end of the test, the number of V. destructor individuals present on the adult bees and in the brood cells was determined. The brood cells were removed from the hives, opened and inspected. Finally, the V. destructor individuals killed by the treatment were counted. The numbers of offspring of the V. destructor individuals present in the brood cells were calculated, separately for each developmental stage of the bees, and specifically pink-eyed pupae (pp), black-eyed pupae (pd) and pigmented pupae and adult bees (ppd).

With `CCCCC/C=C\CCCCCCCCCC` [cis-6-heptadecene] the “Inhibitory activity in respect of varroa reproduction” value [1] was “demonstrated inhibitory activity”, the “Number of offspring per varroa female in the artificial cells treated (Mean)” value [1] was 2.1 and the “Number of offspring per varroa female in the artificial cells treated” value ([1]; listed as cis-6-C17H34) was 2.4 and 2.3 and 1.7.

With `CCCCCCC/C=C\CCCCCCCC` [cis-8-heptadecene] the “Number of offspring per varroa female in the natural cells treated with cis-8-heptadecene” value ([2]; 100 ng in 1 μl acetone per natural capped cell, single replications 1-6) was 3.2 and 2.5 and 3.6 and 3.1 and 3.7, the “Number of offspring per varroa female in the natural cells treated with cis-8-heptadecene (Mean)” value ([2]; 100 ng per natural capped cell, mean of six replications) was 3.2 and the “Number of offspring of V. destructor inside the capped cells of Group B (10 μg)” value (“Number of offspring … (10 μg)” below) ([3]; 10 μg per dispenser, three weeks, PD: black-eyed pupae) was 2.65. The “Number of offspring … (10 μg)” value ([3]; 10 μg per dispenser, three weeks, PDD [sic]: pigmented pupae et adults) was 3.20, the “Number of offspring … (10 μg)” value ([3]; 10 μg per dispenser, three weeks, PP: pink-eyed pupae) was 2 and the “Percentage distribution of V. destructor in Group B (10 μg): Varroa in the reproductive phase” value ([3]; 10 μg per dispenser, three weeks, adult female varroa in brood cells) was 60 Percentage. The “Percentage distribution of V. destructor in Group B (10 μg): Varroa in the phoretic phase” value ([3]; 10 μg per dispenser, three weeks, adult female varroa on adult bees) was 40 Percentage, the “Number of offspring of V. destructor inside the capped cells of Group A (100 μg)” value (“Number of offspring … (100 μg)” for short) ([3]; 100 μg per dispenser, three weeks, PD: black-eyed pupae) was 2.63 and the “Number of offspring … (100 μg)” value ([3]; 100 μg per dispenser, three weeks, PDD [sic]: pigmented pupae et adults) was 3.29. For the same compound, the “Number of offspring … (100 μg)” value ([3]; 100 μg per dispenser, three weeks, PP: pink-eyed pupae) was 2, the “Percentage distribution of V. destructor in Group A (100 μg): Varroa in the reproductive phase” value ([3]; 100 μg per dispenser, three weeks, adult female varroa in brood cells) was 50 Percentage and the “Percentage distribution of V. destructor in Group A (100 μg): Varroa in the phoretic phase” value ([3]; 100 μg per dispenser, three weeks, adult female varroa on adult bees) was 50 Percentage. The “Reproduction of V. destructor in the cells of the hives” value ([3]; Groups A (100 μg) and B (10 μg), as from the black-eyed pupa stage (pd), result in words) was “reduction, albeit modest”, the “Number of offspring per varroa female in the artificial cells treated with cis-8-heptadecene (Mean)” value ([1]; Example 1, 100 ng per gelatine cell, 10 days, mean of four replications) was 1.7 and the “Inhibitory activity in respect of varroa reproduction” value [1] was “demonstrated inhibitory activity”. The “Number of offspring per varroa female in the artificial cells treated (Mean)” value [1] was 1.9 and the “Number of offspring per varroa female in the artificial cells treated” value ([1]; listed as cis-8-C17H34) was 2.0 and 1.5.
